The target in assay [1] is T1, Inhibitor of nuclear factor kappa-B kinase subunit alpha (Homo sapiens) (UniProt O15111).
T1 sequence (whole entry): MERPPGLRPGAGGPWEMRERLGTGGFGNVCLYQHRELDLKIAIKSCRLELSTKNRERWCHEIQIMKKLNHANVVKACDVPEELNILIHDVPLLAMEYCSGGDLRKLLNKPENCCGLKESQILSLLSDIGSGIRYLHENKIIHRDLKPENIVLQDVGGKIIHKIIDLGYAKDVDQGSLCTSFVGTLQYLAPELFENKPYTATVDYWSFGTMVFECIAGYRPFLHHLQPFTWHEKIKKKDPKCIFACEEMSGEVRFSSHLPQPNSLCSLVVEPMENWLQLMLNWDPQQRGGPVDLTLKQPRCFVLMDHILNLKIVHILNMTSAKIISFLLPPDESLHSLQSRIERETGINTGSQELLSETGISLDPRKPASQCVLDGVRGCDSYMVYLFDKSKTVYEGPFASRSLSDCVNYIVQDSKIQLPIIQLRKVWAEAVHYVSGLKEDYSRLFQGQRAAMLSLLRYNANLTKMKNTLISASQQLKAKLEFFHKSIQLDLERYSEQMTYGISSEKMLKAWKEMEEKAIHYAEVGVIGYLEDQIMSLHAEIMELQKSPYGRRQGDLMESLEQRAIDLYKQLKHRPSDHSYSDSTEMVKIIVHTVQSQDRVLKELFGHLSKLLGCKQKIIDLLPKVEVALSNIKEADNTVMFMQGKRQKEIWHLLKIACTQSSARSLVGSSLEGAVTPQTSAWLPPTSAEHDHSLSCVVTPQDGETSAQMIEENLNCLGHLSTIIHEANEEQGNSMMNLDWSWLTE
As to conditions: at 1 µM.

Assay [2] has as its target T2, Inhibitor of nuclear factor kappa-B kinase subunit epsilon (Homo sapiens) (UniProt Q14164).
T2 sequence (whole entry): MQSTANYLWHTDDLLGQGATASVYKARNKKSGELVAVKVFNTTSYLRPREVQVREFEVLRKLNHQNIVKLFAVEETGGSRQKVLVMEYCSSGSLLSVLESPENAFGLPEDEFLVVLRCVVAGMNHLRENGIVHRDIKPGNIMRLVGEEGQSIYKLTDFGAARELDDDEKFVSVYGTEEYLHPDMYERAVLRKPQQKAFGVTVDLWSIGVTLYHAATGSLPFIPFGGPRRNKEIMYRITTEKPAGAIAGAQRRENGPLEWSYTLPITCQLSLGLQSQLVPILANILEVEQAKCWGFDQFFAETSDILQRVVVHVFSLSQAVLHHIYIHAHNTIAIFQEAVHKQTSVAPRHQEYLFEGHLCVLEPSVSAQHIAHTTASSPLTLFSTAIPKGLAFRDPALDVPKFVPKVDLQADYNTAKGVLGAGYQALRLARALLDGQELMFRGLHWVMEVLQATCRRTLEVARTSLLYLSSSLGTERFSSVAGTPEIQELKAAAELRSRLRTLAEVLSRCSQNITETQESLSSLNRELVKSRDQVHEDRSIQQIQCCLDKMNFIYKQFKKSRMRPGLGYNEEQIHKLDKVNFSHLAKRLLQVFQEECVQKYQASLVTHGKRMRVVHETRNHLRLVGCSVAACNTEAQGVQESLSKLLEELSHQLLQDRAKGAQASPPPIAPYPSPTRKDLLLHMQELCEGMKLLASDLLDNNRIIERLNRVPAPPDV
As to conditions: at 1 µM.

This is an account of results in ChEMBL document CHEMBL2007661, “Compounds: GSK PKIS; Assays: UNC Frye lab” (2012).

“And” between values parts separate entries of the source, which are not always exact repeats. Equal entries are not always repeated.

For the compound `Cc1cccc(-c2n[nH]cc2-c2ccc3ncccc3n2)n1`, the inhibition in assay [1] is 2% and 4%; in assay [2] it was -4%.
For `CS(=O)(=O)CCNCc1ccc(-c2ccc3ncnc(Nc4ccc(OCc5ccccc5)c(Cl)c4)c3c2)o1`, the inhibition in assay [1] is 8% and 2%; in assay [2], 1% and -3%.
Regarding `CCN1CCC(CC(=O)Nc2n[nH]c3nc(-c4cccs4)c(Br)cc23)CC1`, the inhibition in assay [1] is -9% and 5%; in assay [2], 2% and 1%.
In the case of `COc1cccc(-n2ncc3c(N/N=C/c4ccc(F)cc4)ncnc32)c1`, the inhibition in assay [1] was 5% and 3%; in assay [2] it was 1% and 0%.
As to `NC(=O)c1sc(-n2cnc3ccc(C(F)(F)F)cc32)cc1OCc1ccccc1Br`, the inhibition in assay [1] was 1% and 0%; in assay [2], 2% and 1%.
In the case of `CCn1cc(-c2ccnc3[nH]ccc23)c(-c2cccc(NC(=O)Nc3ccc(OCc4ccccc4)cc3)c2)n1`, the inhibition is -3% in assay [1]; 0% and 1% in assay [2].
On to `COC(=O)Nc1nc2ccc(S(=O)(=O)c3ccc(NC(=O)Nc4cc(C(F)(F)F)ccc4F)cc3)cc2[nH]1`, for which the inhibition is 2% and 3% in assay [1]; -1% and -2% in assay [2].
Consider `CS(=O)(=O)Nc1ccc(-c2cc(-c3ccccc3)cc(C(N)=O)c2N)cc1`, for which the inhibition in assay [1] is -1% and -3%; in assay [2] it was -2% and -1%.
Regarding `COc1ccc(C2=C(N3CCc4ccccc43)C(=O)NC2=O)cc1`, the inhibition in assay [1] was 2% and 0%; in assay [2] it was -1% and 0%.
Consider `Nc1nonc1-c1nc2cnccc2n1C1CC1`, for which the inhibition in assay [1] is 29% and 33%; in assay [2], 11% and 21%.
As to `COc1cc(Nc2ncc3c(C)nc(-c4cccc(C(F)(F)F)c4)n3n2)cc(OC)c1OC`, the inhibition in assay [1] is 4% and 2%; in assay [2], 29% and 33%.
Take `Cc1nn(C)c2cc(N(C)c3ccnc(Nc4cccc(S(N)(=O)=O)c4)n3)ccc12`: the inhibition in assay [1] was -8% and 0%; in assay [2], 2%.
On to `COc1cccc(-n2cnc3c(N/N=C/c4ccncc4)ncnc32)c1`, for which the inhibition in assay [1] was 2% and -3%; in assay [2], 1% and 0%.
Consider `CC1(C)CC(n2cnc(-c3ccc(F)cc3)c2-c2ccnc(N)n2)CC(C)(C)N1`, for which the inhibition in assay [1] was 3%; in assay [2] it was -1% and 4%.
For `CN(C)C(=O)O[C@H]1CN[C@H](C#Cc2cc3ncnc(Nc4ccc(OCc5cccc(F)c5)c(Cl)c4)c3s2)C1`, the inhibition in assay [1] was 2% and 1%; in assay [2] it was 0% and 2%.
For the compound `Nc1nccc(-c2c(-c3ccc(F)cc3)nn3cc(C(F)(F)F)ccc23)n1`, the inhibition in assay [1] is 1% and 0%; in assay [2], 2%.
With `COc1cc(/C=N/Nc2ncnc3c2cnn3C(C)C)ccc1O`, the inhibition was -3% and 1% in assay [1]; 0% and -3% in assay [2].
On to `Fc1ccc(-c2nn3ccccc3c2-c2ccncc2)cc1`, for which the inhibition is 7% and 5% in assay [1]; -4% and 2% in assay [2].
`CS(=O)(=O)CCNCc1ccc(-c2ccc3ncnc(Nc4ccc(OCc5ccccc5)c(C(F)(F)F)c4)c3c2)o1`: the inhibition is 1% and -1% in assay [1]; -2% and -1% in assay [2].
Consider `Nc1nc(-c2ccc3c(c2)C(=Cc2cc(Br)c(O)c(Br)c2)C(=O)N3)cs1`, for which the inhibition in assay [1] is 4% and 2%; in assay [2] it was 8% and 6%.
`C[C@@H](Oc1cc(-n2cnc3ccc(OCC4CCN(C)CC4)cc32)sc1C(N)=O)c1ccccc1C(F)(F)F`: the inhibition in assay [1] is 3%; in assay [2] it was 2% and 4%.
As to `COc1cc(C)c(N(C)C(=O)CN(C)C)cc1Nc1nc(Nc2cccc(F)c2C(N)=O)c2cc[nH]c2n1`, the inhibition in assay [1] was 4% and 3%; in assay [2], -3% and -2%.
For `CC(C)c1ccc(Nc2nccc(-c3cnn4ncccc34)n2)cc1`, the inhibition in assay [1] is 2% and -1%; in assay [2], 15% and 11%.
As to `CN(c1ccc(NC(=O)NCCN2CCOCC2)cc1)c1ccnc(Nc2ccc(CS(C)(=O)=O)cc2)n1`, the inhibition was 1% in assay [1]; 2% and 5% in assay [2].
Consider `CN1CCC(C(=O)Nc2n[nH]c3nnc(-c4ccccc4)cc23)CC1`, for which the inhibition was 3% in assay [1] and -3% in assay [2].
For the compound `CNC(=O)c1ncccc1Nc1nc(Nc2cc3c(cc2OC)CCCN3C(=O)CN(C)C)nc2[nH]ccc12`, the inhibition was 6% and 5% in assay [1]; 0% and 5% in assay [2].
`COc1cccc(-n2nc(C)c3c(N/N=C(\C)c4ccncc4)ncnc32)c1`: the inhibition in assay [1] was 7% and 6%; in assay [2] it was 18% and 3%.
As to `NS(=O)(=O)c1ccc(N/N=C2\C(=O)Nc3ccc(C(=O)NCCCn4ccnc4)cc32)cc1`, the inhibition is -3% and -4% in assay [1]; 27% in assay [2].
Turning to `O=C(O[C@H]1CN[C@H](C#Cc2cc3ncnc(Nc4ccc5c(cnn5Cc5ccccc5)c4)c3s2)C1)N1CCOCC1`, the inhibition is 4% and 3% in assay [1]; 1% and 2% in assay [2].
In the case of `COC(=O)c1ccc2c(c1)C(=Cc1cc(Br)c(O)c(Br)c1)C(=O)N2`, the inhibition in assay [1] is -7%; in assay [2], 51% and 52%.
Turning to `Fc1cccc(COc2ccc(Nc3ncncc3C#Cc3ccccc3)cc2Cl)c1`, the inhibition in assay [1] was 2% and 5%; in assay [2], -4% and 0%.
With `c1ccc(Nc2ncc(-c3ccccc3)o2)cc1`, the inhibition is -1% and 0% in assay [1]; 0% and -1% in assay [2].
As for `NCc1ccc(-n2c(-c3nonc3N)nc3cnccc32)cc1`, the inhibition in assay [1] is 40% and 38%; in assay [2], 2%.
As to `CCCN1CCC(c2ccc(Nc3nc(Nc4cc(F)ccc4C(N)=O)c4cc[nH]c4n3)c(OC)c2)CC1`, the inhibition is 3% and 0% in assay [1]; 8% and 6% in assay [2].
In the case of `O=C(Nc1ccc(Oc2ccc3[nH]c(NC(=O)c4ccccc4)nc3c2)cc1)Nc1cc(C(F)(F)F)ccc1F`, the inhibition in assay [1] was 11%; in assay [2] it was 6% and 5%.
On to `NS(=O)(=O)c1ccc(N/N=C2\C(=O)Nc3ccc(C(=O)NCc4ccncc4)cc32)cc1`, for which the values for the inhibition in assay [1] and in assay [2] were 0% and 65%, respectively.
For `CN(C)CCCNc1nccc(-c2c(-c3ccc(F)cc3)nn3cc(C(F)(F)F)ccc23)n1`, the inhibition in assay [1] was 2% and 3%; in assay [2], -1% and 0%.
Turning to `CCc1ccc(Oc2nccc(-c3c(-c4ccc(F)cc4)ncn3C3CCNCC3)n2)cc1`, the inhibition in assay [1] was 3% and 2%; in assay [2], -3% and -4%.
For `CNC(=O)c1cncc(/C=C/c2ccccc2C)c1`, the inhibition in assay [1] is 4% and -3%; in assay [2], 3% and 1%.
For `NS(=O)(=O)c1ccc(Nc2cc(-c3ccc(O)c(F)c3)n[nH]2)cc1`, the inhibition in assay [1] was 1% and -1%; in assay [2], 4% and 3%.
Consider `COC(=O)Nc1nc2cc(Oc3ccc(NC(=O)Nc4cccc(C(=O)O)c4)cc3)ccc2[nH]1`, for which the inhibition in assay [1] was 2% and 4%; in assay [2], 0% and -2%.
On to `NS(=O)(=O)c1ccc(Nc2ncc(-c3ccccc3)o2)cc1`, for which the inhibition in assay [1] is 4% and 3%; in assay [2], 2% and 3%.
In the case of `CCn1c(-c2nonc2N)nc2ccncc21`, the inhibition in assay [1] was 4% and 1%; in assay [2] it was -2% and -1%.
Take `CC1=C(C(=O)Nc2ccc3[nH]ncc3c2)C(c2ccc(Cl)c(Cl)c2)CC(=O)N1` (configuration not stated): the inhibition in assay [1] was 6% and -8%; in assay [2], 0% and 1%.
Regarding `O=C(Nc1ccc(Oc2ccc3[nH]c(NC(=O)c4ccco4)nc3c2)cc1)Nc1cc(C(F)(F)F)ccc1F`, the inhibition in assay [1] was -1%; in assay [2] it was 1% and 0%.
As to `CCCN(CCS(C)(=O)=O)Cc1ccc(-c2ccc3ncnc(Nc4ccc(OCc5cccc(F)c5)c(Cl)c4)c3c2)o1`, the inhibition in assay [1] is 2% and -1%; in assay [2] it was 1% and 3%.
